Measurements reported in patent US20260125378A2, “Heterocyclic Compounds” (BeOne Medicines I GmbH, priority 2023, published 2026).

What was measured:
[1] = target: T1, Full length DGKα (D21-10BG, SignalChem) (Homo sapiens, UniProt P23743); test: Biochemical DGK IC50 assay (ADP-Glo, lipid micelle substrate), DGKα; conditions: 1 hour preincubation, 1 hour reaction, room temperature
T1 construct: Full length DGKα (D21-10BG, SignalChem); purchased SignalChem D21-10BG
Experimental: (§1) Enzymatic reactions of DGKζ, DGKα and DGKδ were performed using ADP-Glo assay with lipid micelle substrate. […] Full length DGKα (D21-10BG, SignalChem) and full length DGKδ (D23-10G, SignalChem) were purchased. Lipid micelle was prepared by dissolving DAG (Sigma, 317505-10 MG) and PS (Sigma, P7769-100 MG) with chloroform which was furtherly removed by rotary evaporation. The obtained residue was resuspended in buffer containing 25 mM HEPES pH 7.0, 0.5 mM EDTA and 160 mM Octyl β-D glucopyranoside by vigorous mixing and ultrasonic (IID, Scientz).
(§2) The inhibition activities testing for the compound disclosed herein were carried out at room temperature in assay buffer containing 50 mM HEPES, 10 mM MgCl2, 0.01% BSA, 0.1 mM Na3VO4, 0.005% Tween-20 and 0.01 mM CaCl2). Compounds in DMSO were dispensed into wells of a black 384 well plate (Corning 4514) using D300e digital dispenser (Tecan). […] 3 μL 2× enzyme solution was added to wells. […] After 1 hour reaction, 5 μL ADP-Glo reagent (Promga V9101) was added and incubated for 40 minutes. 10 μL Kinase Detection reagent was added and incubated for 30 minutes. Luminescence was measured on a microplate reader (PHERAstar FSX, BMG labtech). The IC50S are calculated based on inhibition of enzyme activity in the presence of increasing concentrations of compounds.

[2] = target: T2, Full length DGKζ (in-house protein M1-V929) (Homo sapiens, UniProt Q13574); test: Biochemical DGK IC50 assay (ADP-Glo, lipid micelle substrate), DGKζ; conditions: 1 hour preincubation, 1 hour reaction, room temperature
T2 construct: His (N); TEV site (N); made in house; host or cells: Sf9 insect cells (Bac-to-Bac baculovirus)
T2 sequence (Q13574 1-929 isoform Q13574-4): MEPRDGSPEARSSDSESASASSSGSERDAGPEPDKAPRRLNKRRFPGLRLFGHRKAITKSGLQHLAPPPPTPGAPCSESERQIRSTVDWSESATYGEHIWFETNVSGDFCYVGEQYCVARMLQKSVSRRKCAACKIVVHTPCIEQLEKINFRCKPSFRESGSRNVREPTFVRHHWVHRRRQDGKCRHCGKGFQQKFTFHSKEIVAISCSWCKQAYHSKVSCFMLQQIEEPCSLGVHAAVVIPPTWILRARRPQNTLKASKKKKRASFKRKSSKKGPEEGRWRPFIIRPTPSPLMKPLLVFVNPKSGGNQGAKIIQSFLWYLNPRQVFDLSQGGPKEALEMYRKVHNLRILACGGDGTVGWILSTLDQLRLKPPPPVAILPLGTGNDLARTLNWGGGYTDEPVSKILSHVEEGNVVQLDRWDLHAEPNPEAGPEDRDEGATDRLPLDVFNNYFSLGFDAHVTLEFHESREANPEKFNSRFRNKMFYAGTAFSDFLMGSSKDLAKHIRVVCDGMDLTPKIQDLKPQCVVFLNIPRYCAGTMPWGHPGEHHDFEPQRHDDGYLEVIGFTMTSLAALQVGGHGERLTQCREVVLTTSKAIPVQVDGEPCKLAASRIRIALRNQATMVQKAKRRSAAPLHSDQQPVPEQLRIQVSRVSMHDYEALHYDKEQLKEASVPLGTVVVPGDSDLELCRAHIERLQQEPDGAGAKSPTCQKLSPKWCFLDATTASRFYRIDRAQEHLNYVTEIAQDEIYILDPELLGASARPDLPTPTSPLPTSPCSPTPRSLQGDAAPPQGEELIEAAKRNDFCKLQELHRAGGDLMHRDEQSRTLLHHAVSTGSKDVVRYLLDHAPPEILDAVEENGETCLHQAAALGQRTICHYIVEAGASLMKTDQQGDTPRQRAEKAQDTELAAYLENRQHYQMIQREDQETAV
Experimental: as §1, §2
Human His-TEV-DGK-zeta-pFastBac1 and human baculovirus samples was generated using the Bac- to -Bac baculovirus expression system (Invitrogen) according to the manufacturer's protocol. The DNA used for expression of DGK-zeta, have SEQ ID Nos: 1. Baculovirus amplification was achieved using infected SF9 cells at 1:2000 virus/cells ratios, and grown for 96 hours at 27° C. post-transfected.
The expression scaled up for each protein was carried out in the […] from CORNING. 4 L of 3×10^6 cells/mL Sf9 cells (Expression System, Invitrogen) grown in SF900™ II SFM insect medium (Expression System) was infected with virus stock at 1:200 virus/cells ratio, and grown for 48 hours at 27° C. post-transfection. The infected cell culture was harvested by centrifugation at 6000 rpm for 15 min 4° C. in a SORVALL LYNX6000 centrifuge. The cell pellets were stored at −80° C.
Full length human DGKζ produced as described above, was purified from Sf9 baculovirus-infected insect cell paste. The cells were lysed using sonication method, and the lysates were clarified by centrifugation.

T1 sequence (P23743 whole entry): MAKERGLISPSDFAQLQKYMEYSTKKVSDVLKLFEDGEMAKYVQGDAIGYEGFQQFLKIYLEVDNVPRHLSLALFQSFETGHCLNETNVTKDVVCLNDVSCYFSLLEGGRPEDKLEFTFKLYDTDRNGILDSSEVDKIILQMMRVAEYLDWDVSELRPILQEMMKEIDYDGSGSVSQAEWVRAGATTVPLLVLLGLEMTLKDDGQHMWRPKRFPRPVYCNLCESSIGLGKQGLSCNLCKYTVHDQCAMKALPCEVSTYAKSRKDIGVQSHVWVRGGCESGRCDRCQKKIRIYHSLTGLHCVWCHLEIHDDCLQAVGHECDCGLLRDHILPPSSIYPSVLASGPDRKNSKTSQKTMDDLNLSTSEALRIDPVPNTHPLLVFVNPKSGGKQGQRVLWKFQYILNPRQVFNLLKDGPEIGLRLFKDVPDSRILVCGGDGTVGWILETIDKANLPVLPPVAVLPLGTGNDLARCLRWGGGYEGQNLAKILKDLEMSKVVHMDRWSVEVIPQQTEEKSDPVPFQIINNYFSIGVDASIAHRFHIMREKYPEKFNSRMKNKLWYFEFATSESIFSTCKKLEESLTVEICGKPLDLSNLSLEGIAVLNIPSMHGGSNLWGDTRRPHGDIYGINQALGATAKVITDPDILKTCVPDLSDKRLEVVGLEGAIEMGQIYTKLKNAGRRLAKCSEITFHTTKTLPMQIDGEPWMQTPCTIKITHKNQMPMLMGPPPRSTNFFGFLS

| SMILES | IC50 [1] | IC50 [2] |
| --- | --- | --- |
| CCn1c(CC#N)nc2c(N3C[C@@H](C)N(C(C)c4ccc(C(F)(F)F)c(C)c4)C[C@@H]3C)nc(=O)n(C)c21 (stereo partly drawn) [Compound A137, 2-(6-((2S,5R)-2,5-dimethyl-4-(1-(3-methyl-4-(trifluoromethyl)phenyl)ethyl)piperazin-1-yl)-9-ethyl-3-methyl-2-oxo-3,9-dihydro-2H-purin-8-yl)acetonitrile] | 48.7 µM | 0.064 µM |
| CCn1c(CC#N)nc2c(N3C[C@@H](C)N(C(C)c4cc(C)c5c(c4)OC(C)(C)O5)C[C@@H]3C)nc(=O)n(C)c21 (stereo partly drawn) [Compound A177, 2-(6-((2S,5R)-2,5-dimethyl-4-(1-(2,2,7-trimethylbenzo[d][1,3]dioxol-5-yl)ethyl)piperazin-1-yl)-9-ethyl-3-methyl-2-oxo-3,9-dihydro-2H-purin-8-yl)acetonitrile] | 72.6 µM | 0.168 µM |
| COC(C)c1cc(F)ccc1C(C)N1C[C@H](C)N(c2nc(=O)n(C)c3c2nc(CC#N)n3C)C[C@H]1C (stereo partly drawn) [Compound A28, 2-(6-((2S,5R)-4-(1-(4-fluoro-2-(1-methoxyethyl)phenyl)ethyl)-2,5-dimethylpiperazin-1-yl)-3,9-dimethyl-2-oxo-3,9-dihydro-2H-purin-8-yl)acetonitrile] | 96.9 µM | 0.003 µM |
| CCn1c(CC#N)nc2c(N3C[C@@H](C)N(C(C)c4cc5c(cc4F)OC(C)(C)CO5)C[C@@H]3C)nc(=O)n(C)c21 (single isomer, unassigned) [Compound A156a] | 68.6 µM | 0.496 µM |
| CCn1c(CC#N)nc2c(N3C[C@@H](C)N(C(C)c4cccc(C(C)(C)C#N)c4)C[C@@H]3C)nc(=O)n(C)c21 (stereo partly drawn) [Compound A134, 2-(3-(1-((2R,5S)-4-(8-(cyanomethyl)-9-ethyl-3-methyl-2-oxo-3,9-dihydro-2H-purin-6-yl)-2,5-dimethylpiperazin-1-yl)ethyl)phenyl)-2-methylpropanenitrile] | 113 µM | 0.022 µM |
| Cc1ccc(C(C)N2C[C@H](C)N(c3cc(=O)n(C)c4c3nc(CC#N)n4C)C[C@H]2C)cc1 (single isomer, unassigned) [Compound A5a] | 5.77 µM | 0.878 µM |
| CCn1c(CC#N)nc2c(N3C[C@@H](C)N(C(C)c4cc(C(F)(F)F)ccc4F)C[C@@H]3C)nc(=O)n(C)c21 (stereo partly drawn) [Compound A114, 2-(9-ethyl-6-((2S,5R)-4-(1-(2-fluoro-5-(trifluoromethyl)phenyl)ethyl)-2,5-dimethylpiperazin-1-yl)-3-methyl-2-oxo-3,9-dihydro-2H-purin-8-yl)acetonitrile] | 135 µM | 0.246 µM |
| CCc1nc2cc(C(C)N3C[C@H](C)N(c4nc(=O)n(C)c5c4nc(CC#N)n5CC)C[C@H]3C)ccc2s1 (mixture of isomers) [Compound A95, 2-(9-ethyl-6-((2S,5R)-4-(1-(2-ethylbenzo[d]thiazol-5-yl)ethyl)-2,5-dimethylpiperazin-1-yl)-3-methyl-2-oxo-3,9-dihydro-2H-purin-8-yl)acetonitrile] | 50.5 µM | 0.042 µM |
| CCn1c(CC#N)nc2c(N3C[C@@H](C)N(C(C)c4ccc(C(F)(F)F)cc4)C[C@@H]3C)nc(=O)n(C)c21 (stereo partly drawn) [Compound A40, 2-(6-((2S,5R)-2,5-dimethyl-4-(1-(4-(trifluoromethyl)phenyl)ethyl)piperazin-1-yl)-9-ethyl-3-methyl-2-oxo-3,9-dihydro-2H-purin-8-yl)acetonitrile] | 25.9 µM | 0.398 µM |
| CCn1c(CC#N)nc2c(N3C[C@@H](C)N(C(C)c4ccc(F)c5c4OC(C)(C)O5)C[C@@H]3C)nc(=O)n(C)c21 (single isomer, unassigned) [Compound A185a] | 121 µM | 0.806 µM |
| COC[C@H]1CN(C(C)c2ccc(F)cc2C(F)(F)F)[C@H](C)CN1c1nc(=O)n(C)c2c1nc(CC#N)n2C (single isomer, unassigned) [Compound A10b] | > 10 µM | 0.014 µM |
| CCn1c(CC#N)nc2c(N3C[C@@H](C)N(C(C)c4ccc5c(c4F)OC(C)(C)O5)C[C@@H]3C)nc(=O)n(C)c21 (single isomer, unassigned) [Compound A175b] | 21.4 µM | 0.004 µM |
